# Data taken from article PMC11981937 (Nature, 2025).
# Values joined by “and” are separate entries in the source; they are usually repeats but may differ in a detail not shown here. Equal entries are not always repeated. Where two headings read alike, the source gives them in different places.
# How the values were obtained:
# SARS-CoV-2 B1 = assay type: in vivo, Syrian golden hamster; conditions: pre-exposure, 75 mpk BID; 75 mg/kg
# [1] = test system: SARS-CoV-2 (USA-WA1/2020); parameters: species or system Syrian golden hamster; conditions: hamster, in vivo
# [2] = female, Syrian golden, hamster, in vivo, po
# in vivo = conditions: Syrian golden, hamster; for concentration at 0.05 h / concentration at 1 h / concentration at 2 h / concentration at 4 h / concentration at 7 h / concentration at 24 h / concentration at 12 h / concentration at 0.5 h: female
# in vitro [3] = conditions: rhesus monkey
# in vitro [4] = conditions: human
# [5] = po, 50 mg/kg, individual animal
structure (smiles),measurement,setting,value
"C[C@H]1Cn2ncc(C(=O)Nc3cccc(C#N)c3)c2C(=O)N1c1ccc(C(F)(F)c2ccccc2)cc1 [JNJ-9676, (S)-N-(3-cyanophenyl)-5-(4-(difluoro(phenyl)methyl)phenyl)-6-methyl-4-oxo-4,5,6,7-tetrahydropyrazolo[1,5-a]pyrazine-3-carboxamide]","Viral load in the lung, reduction relative to vehicle",SARS-CoV-2 B1,3.01 (p=0.0019) log10 copies/mg lung and 3.01 (p=0.0019) log10 copies/mg lung
same,"Infectious SARS-CoV2 virus in the lung, Avg",[1],137996 PFU/g Lung and 75729 PFU/g Lung
same,"Infectious SARS-CoV2 virus in the lung, Log10, Avg",[1],3.732 Log10 PFU/g Lung and 3.479 Log10 PFU/g Lung
same,"Concentration, individual animal","[2]; 5 mg/kg, 12 h",153 ng/mL
same,"Concentration, individual animal","[2]; 50 mg/kg, 1 h",908 ng/mL
same,Vd,in vivo,7.9 L/kg
same,clearance,in vivo,9 mL/min/kg
same,half-life,in vivo,13 h
same,bioavailability,in vivo; po,> 50%
same,concentration at 0.05 h,"in vivo; iv, 1 mg/kg, average",555 ng/mL
same,concentration at 1 h,"in vivo; iv, 1 mg/kg, average",240 ng/mL
same,concentration at 2 h,"in vivo; iv, 1 mg/kg, average",186 ng/mL
same,concentration at 4 h,"in vivo; iv, 1 mg/kg, average",83.8 ng/mL
same,concentration at 7 h,"in vivo; iv, 1 mg/kg, average",47.7 ng/mL
same,concentration at 24 h,"in vivo; iv, 1 mg/kg, average",19.2 ng/mL
same,concentration at 12 h,"in vivo; iv, 1 mg/kg, average, female hamster, IV 1 mg/kg, 12 h, n=3",25.1 ng/mL
same,concentration at 0.05 h,"in vivo; iv, 1 mg/kg, individual animal",558 ng/mL
same,concentration at 1 h,"in vivo; iv, 1 mg/kg, individual animal",268 ng/mL
same,concentration at 2 h,"in vivo; iv, 1 mg/kg, individual animal",170 ng/mL
same,concentration at 4 h,"in vivo; iv, 1 mg/kg, individual animal",75.9 ng/mL
same,concentration at 7 h,"in vivo; iv, 1 mg/kg, individual animal",45.4 ng/mL
same,concentration at 12 h,"in vivo; iv, 1 mg/kg, individual animal",26.7 ng/mL
same,concentration at 24 h,"in vivo; iv, 1 mg/kg, individual animal",20.1 ng/mL
same,concentration at 0.5 h,"in vivo; po, 5 mg/kg, average",68.1 ng/mL
same,concentration at 1 h,"in vivo; po, 5 mg/kg, average",114 ng/mL
same,concentration at 2 h,"in vivo; po, 5 mg/kg, average",220 ng/mL
same,concentration at 4 h,"in vivo; po, 5 mg/kg, average",264 ng/mL
same,concentration at 7 h,"in vivo; po, 5 mg/kg, average",176 ng/mL
same,concentration at 12 h,"in vivo; po, 5 mg/kg, average",129 ng/mL
same,concentration at 24 h,"in vivo; po, 5 mg/kg, average",82.6 ng/mL
same,concentration at 0.5 h,"in vivo; po, 5 mg/kg, individual animal",71 ng/mL
same,concentration at 1 h,"in vivo; po, 5 mg/kg, individual animal",95.4 ng/mL
same,concentration at 2 h,"in vivo; po, 5 mg/kg, individual animal",230 ng/mL
same,concentration at 7 h,"in vivo; po, 5 mg/kg, individual animal",142 ng/mL
same,concentration at 12 h,"in vivo; po, 5 mg/kg, individual animal",89.2 ng/mL
same,concentration at 12 h,"in vivo; po, 5 mg/kg, individual animal, female hamster, PO 5mg/kg, 12 h",145 ng/mL
same,concentration at 0.5 h,"in vivo; po, 50 mg/kg, average",801 ng/mL
same,concentration at 1 h,"in vivo; po, 50 mg/kg, average",1060 ng/mL
same,concentration at 4 h,"in vivo; po, 50 mg/kg, average",2430 ng/mL
same,concentration at 7 h,"in vivo; po, 50 mg/kg, average",2080 ng/mL
same,concentration at 24 h,"in vivo; po, 50 mg/kg, average",655 ng/mL
same,concentration at 2 h,"in vivo; po, 50 mg/kg, average, female hamster, PO 50mg/kg, 2 h, n=3",1760 ng/mL
same,concentration at 12 h,"in vivo; po, 50 mg/kg, average, female hamster, PO 50mg/kg, 12 h, n=3",1200 ng/mL
same,concentration at 0.5 h,in vivo; [5],680 ng/mL
same,concentration at 1 h,in vivo; [5],829 ng/mL
same,concentration at 2 h,in vivo; [5],1580 ng/mL
same,concentration at 4 h,in vivo; [5],2230 ng/mL
same,concentration at 7 h,in vivo; [5],1510 ng/mL
same,concentration at 1 h,"in vivo; po, 50 mg/kg, individual animal, female hamster, PO 50mg/kg, 1 h",1450 ng/mL
same,CC50 at 6 days,in vitro [3],> 20 µM
same,CC50 at 6 days,in vitro [4],> 50 µM
